Assay results published in ChEMBL document CHEMBL1156829 (Proc Natl Acad Sci U S A, 2008).

Key:
[1] = NOVARTIS: Cytotoxicity against human hepatocellular carcinoma cell line (Huh7); format: toxicity, cell-based, Huh-7; details: Huh7 cells (hepatocellular carcinoma cell line)
[2] = test system: Plasmodium falciparum; assay: NOVARTIS: Inhibition of Plasmodium falciparum 3D7 (drug-susceptible) proliferation in erythrocyte-based infection assay; format: functional, organism-based; details: Plasmodium falciparum, 3D7
[3] = test system: Plasmodium falciparum; assay: NOVARTIS: Inhibition of Plasmodium falciparum W2 (drug-resistant) proliferation in erythrocyte-based infection assay; format: functional, organism-based; details: Plasmodium falciparum, W2; read-out: EC50

CN(C)c1ccc(/C=C2/SC(=Nc3ccc(O)cc3)NC2=O)cc1
CC50 [1]: > 100 µM
EC50 [2]: 2.82 µM
EC50 [3]: > 12.5 µM

Nc1nc(N)c2cc(S(=O)(=O)N3CCCC3)ccc2n1
CC50 [1]: 12.9 µM
EC50 [2]: 0.0585 µM
EC50 [3]: > 1.25 µM

NC(=O)Cc1ccccc1
CC50 [1]: > 100 µM
EC50 [2]: > 12.5 µM
EC50 [3]: 9.5 µM

CCSc1sc2sccc2[n+]1CC
CC50 [1]: > 8.58 µM
EC50 [2]: 0.944 µM
EC50 [3]: 0.833 µM

O=C(c1ccccc1)c1cc(Cl)ccc1NCCBr
CC50 [1]: > 10 µM
EC50 [2]: > 1.25 µM
EC50 [3]: > 0.955 µM

Cc1c(Cl)cccc1NCC(=O)NN=C1CCCC1
CC50 [1]: > 10 µM
EC50 [2]: > 1.25 µM
EC50 [3]: > 0.948 µM

Oc1ccc2cc(-c3nc4ccccc4[nH]3)c3nc4ccccc4n3c2c1
CC50 [1]: > 10 µM
EC50 [2]: > 1.05 µM
EC50 [3]: 0.97 µM

CSc1nccc(-c2cc(F)cc3c2OC(CNC(=O)C2CC(=O)c4ccccc42)C3)n1 (stereo not drawn)
CC50 [1]: > 10 µM
EC50 [2]: 1.8 µM
EC50 [3]: > 0.969 µM

CCN1CCN(CC=Cc2ccccc2[N+](=O)[O-])CC1
CC50 [1]: > 100 µM
EC50 [2]: > 12.5 µM
EC50 [3]: > 9.69 µM

Cc1cc(-c2cn[nH]c2C2CCCN(C(=O)Cc3ccccc3F)C2)on1 (stereo not drawn)
CC50 [1]: > 10 µM
EC50 [2]: > 1.25 µM
EC50 [3]: > 0.969 µM

CCOc1ccc(C(=O)Nc2cccc(-c3nc4cc(C)ccc4o3)c2C)cc1
CC50 [1]: > 10 µM
EC50 [2]: > 1.25 µM
EC50 [3]: > 0.968 µM

OC(CN1CCOCC1)Cn1cnc2c(SCc3ccccc3)ncnc21 (stereo not drawn)
CC50 [1]: > 100 µM
EC50 [2]: > 12.5 µM
EC50 [3]: > 9.67 µM

CCCCCN(CC(=O)Nc1cc(C(C)(C)C)nn1-c1ccc(Cl)c(Cl)c1)C(=O)c1ccc2c(c1)OCO2
CC50 [1]: > 10 µM
EC50 [2]: 1.03 µM
EC50 [3]: 0.966 µM

O=C(O)c1cccc(N2N=C(c3ccccc3)CC2=O)c1
CC50 [1]: > 100 µM
EC50 [2]: > 12.5 µM
EC50 [3]: > 9.63 µM

Oc1ccc(-c2cncc(NCc3ccc4c(c3)OCO4)c2)cc1
CC50 [1]: > 10 µM
EC50 [2]: 1.17 µM
EC50 [3]: 0.96 µM

O=C1C2CN(C(=O)Nc3ccccc3)C(c3ccc(Cl)cc3)C2C(=O)N1c1ccccc1 (stereo not drawn)
CC50 [1]: > 10 µM
EC50 [2]: > 1.25 µM
EC50 [3]: > 0.958 µM

O=C(Nc1ccccc1)/C(=C\c1ccncc1)NC(=O)c1ccccc1
CC50 [1]: > 10 µM
EC50 [2]: > 1.25 µM
EC50 [3]: > 0.955 µM

CC(C)Nc1nc(-c2cccnc2)nc2ccccc12
CC50 [1]: > 10 µM
EC50 [2]: > 0.829 µM
EC50 [3]: > 0.955 µM

COc1ccc(OC)c(-c2ccc(O)c(CNC3CCCCC3)c2)c1
CC50 [1]: > 10 µM
EC50 [2]: 0.842 µM
EC50 [3]: 0.953 µM

COc1ccc(CNC(=O)c2ccc3c(c2)N=C(/C=C/c2ccccc2)N(CCN2CCOCC2)C3)cc1
CC50 [1]: > 10 µM
EC50 [2]: 0.79 µM
EC50 [3]: > 0.949 µM

CCN(CC)CCN(Cc1cc2cc(OC)ccc2[nH]c1=O)C(=S)Nc1cccc(Cl)c1
CC50 [1]: 23.1 µM
EC50 [2]: 1.19 µM
EC50 [3]: 2.19 µM

N#C/C(=C\C=C\c1ccc([N+](=O)[O-])o1)c1nc2ccccc2[nH]1
CC50 [1]: > 10 µM
EC50 [2]: 1.05 µM
EC50 [3]: 0.946 µM

COc1ccc(OC)c(-c2ccc(O)c(CNC3CCCCCCC3)c2)c1
CC50 [1]: > 10 µM
EC50 [2]: 0.767 µM
EC50 [3]: 0.952 µM

O=c1c2c3c(sc2ncn1Cc1cccc(Cl)c1)CC(N1CCCCC1)CC3 (stereo not drawn)
CC50 [1]: 27.8 µM
EC50 [2]: 2.95 µM
EC50 [3]: 2.64 µM

COC(=O)c1c(-c2c(F)cccc2Cl)noc1C=CNc1ccccc1
CC50 [1]: 73.7 µM
EC50 [2]: 11.4 µM
EC50 [3]: 6.98 µM

CC1CC(=Cc2ccncc2)C(=O)C(=Cc2ccncc2)C1 (stereo not drawn)
CC50 [1]: 7.77 µM
EC50 [2]: 1.63 µM
EC50 [3]: 0.736 µM

COc1ccc(N2C(=O)/C(=C3/C(=O)Nc4ccc(F)cc43)SC2=S)c(OC)c1
CC50 [1]: > 10 µM
EC50 [2]: > 0.926 µM
EC50 [3]: 0.947 µM

Cc1ccc(NC=C2C(=O)NC(=S)NC2=O)cc1
CC50 [1]: > 100 µM
EC50 [2]: > 12.5 µM
EC50 [3]: > 9.49 µM

COCC(=O)NC(c1ccccc1)c1cc(Cl)c2cccnc2c1O (stereo not drawn)
CC50 [1]: > 10 µM
EC50 [2]: 1.05 µM
EC50 [3]: 0.95 µM

Nc1nc(N)nc(C(c2ccccc2)c2ccccc2)n1
CC50 [1]: > 13.2 µM
EC50 [2]: 1.09 µM
EC50 [3]: > 1.25 µM

COc1ccc(/C=C2\N=C(c3ccc(Cl)cc3)N(c3cc(Cl)ccc3C)C2=O)cc1OC
CC50 [1]: > 10 µM
EC50 [2]: > 1.25 µM
EC50 [3]: > 0.949 µM

COc1cc(NC(C)CCCN(Cc2ccc(Cl)cc2)C(=O)c2ccc(Cl)cc2Cl)c2ncccc2c1 (stereo not drawn)
CC50 [1]: 4.87 µM
EC50 [2]: 0.376 µM
EC50 [3]: 0.473 µM

CCCNC(=O)Cn1nc(C)n2c(cc3sccc32)c1=O
CC50 [1]: > 10 µM
EC50 [2]: > 1.25 µM
EC50 [3]: > 0.971 µM

Cc1cn2c3ccccc3n(CCN3CCOCC3)c2n1
CC50 [1]: > 100 µM
EC50 [2]: > 2.48 µM
EC50 [3]: > 12.5 µM

O=C1Nc2ccccc2Sc2ccccc21
CC50 [1]: > 100 µM
EC50 [2]: > 3.03 µM
EC50 [3]: > 12.5 µM

CCOc1ccc2c(C)nc(NC(N)=NC(C)=O)nc2c1
CC50 [1]: > 100 µM
EC50 [2]: 3.02 µM
EC50 [3]: > 12.5 µM

CC1CN(C(=O)C(Cc2c[nH]c3ccccc23)NC(=O)CCl)CCN1C(=O)Nc1ccccc1 (stereo not drawn)
CC50 [1]: > 10 µM
EC50 [2]: 0.289 µM
EC50 [3]: > 1.25 µM

Cc1ccc(N2C(=O)C3C(C2=O)C2(c4ccccc4)C(=O)C3(c3ccccc3)C(c3ccccc3)=C2c2ccccc2)c([N+](=O)[O-])c1 (stereo not drawn)
CC50 [1]: > 100 µM
EC50 [2]: 2.64 µM
EC50 [3]: > 12.5 µM

CCNC1=C(C(=O)c2ccccc2)N(CC(=O)c2ccc(Br)cc2)S(=O)(=O)c2ccccc21
CC50 [1]: > 10 µM
EC50 [2]: > 1.25 µM
EC50 [3]: 0.966 µM

Cc1ccccc1CSc1ccc(-c2cccs2)nn1
CC50 [1]: > 10 µM
EC50 [2]: > 1.05 µM
EC50 [3]: 0.963 µM

COc1ccc2c(c1)sc1nc(C)c(C)c(C)[n+]12
CC50 [1]: > 10 µM
EC50 [2]: 0.688 µM
EC50 [3]: > 0.952 µM

Cc1ccc(Nc2cc(C)nc(NCc3ccccc3)n2)c(C)c1
CC50 [1]: 6.51 µM
EC50 [2]: 0.306 µM
EC50 [3]: 0.619 µM

CC1CCCC(NC(=O)C2N(CCN3CCCCC3C)C(=O)C3C(C(=O)Nc4cccc(Cl)c4)C4C=CC32O4)C1C (stereo not drawn)
CC50 [1]: 47.7 µM
EC50 [2]: > 10.4 µM
EC50 [3]: 4.61 µM

COc1ccc(CC(=O)Nc2ccc(S(=O)(=O)N3CCCCCC3)cc2)cc1
CC50 [1]: > 100 µM
EC50 [2]: > 12.5 µM
EC50 [3]: 9.69 µM

O=C1NN=C2C1=NC1(CCCCC1)Cc1ccccc12
CC50 [1]: 3.9 µM
EC50 [2]: 0.325 µM
EC50 [3]: 0.376 µM

N#C/C(=C\c1ccc(Sc2ccccc2)o1)c1nc2ccccc2[nH]1
CC50 [1]: > 10 µM
EC50 [2]: 1.51 µM
EC50 [3]: 0.947 µM

S=C(NN=Cc1ccccn1)NC1CC2CC1C1C=CCC21 (stereo not drawn)
CC50 [1]: > 1.14 µM
EC50 [2]: 0.123 µM
EC50 [3]: 0.109 µM

c1cncc(-c2cc(NCCCn3ccnc3)nc(-c3ccncc3)n2)c1
CC50 [1]: > 10 µM
EC50 [2]: 1.09 µM
EC50 [3]: 0.956 µM

O=C(Cn1c(=O)oc2cc(S(=O)(=O)NCc3ccccc3)ccc21)NC1CCCCC1
CC50 [1]: > 10 µM
EC50 [2]: > 1.25 µM
EC50 [3]: > 0.955 µM

O=C(Nc1cc(C(F)(F)F)ccc1OCc1ccccc1)c1ccccc1O
CC50 [1]: > 10 µM
EC50 [2]: > 1.25 µM
EC50 [3]: 0.949 µM

CCOC(=O)Cn1cnc2c(nnn2Cc2ccc(F)cc2)c1=O
CC50 [1]: > 1.7 µM
EC50 [2]: 0.38 µM
EC50 [3]: 0.16 µM

Cc1cc([N+](=O)[O-])ccc1-c1ccc(C(=O)Nc2ccc(-c3nc4ccccc4[nH]3)cc2)o1
CC50 [1]: > 100 µM
EC50 [2]: 2.79 µM
EC50 [3]: > 12.5 µM

CCOc1ccc2nc(C)c(CN(C)Cc3ccccc3)c(O)c2c1
CC50 [1]: > 10 µM
EC50 [2]: > 1.25 µM
EC50 [3]: 0.969 µM

NC(=O)c1ccc(-n2nnnc2SCc2ccc(Cl)cc2)cc1
CC50 [1]: > 100 µM
EC50 [2]: 2.83 µM
EC50 [3]: > 12.5 µM

Cn1c(=O)c(Cl)c2c3c(c(Cl)ccc31)C(=O)c1ccccc1-2
CC50 [1]: > 10 µM
EC50 [2]: > 0.297 µM
EC50 [3]: > 1.25 µM

Nc1nc(N)c2c(OCc3ccc(C(F)(F)F)cc3)cccc2n1
CC50 [1]: > 10 µM
EC50 [2]: 0.782 µM
EC50 [3]: 0.972 µM
